Holding throughout (assay type): functional, Homo sapiens
Test [1] deals with MCF7. Briefly: Concentration required for 50% inhibition of proliferation of breast cancer cell line, MCF-7 with respect to paclitaxel was tested in vitro after 72 hr of incubation.
Test [2] relates to SK-OV-3. Briefly: Concentration required for 50% inhibition of proliferation of ovarian cancer cell line, SKOV3 with respect to paclitexal was tested in vitro after 72 hr of incubation.
Test [3] relates to A549. Briefly: Concentration required for 50% inhibition of proliferation of lung cancer cell line, A549 with respect to paclitaxel was tested in vitro after 72 hr of incubation.

`CC(=O)O[C@H]1[C@@H]2[C@@H]3CN[C@@H]3CC[C@@]2(C)[C@@H](OC(C)=O)[C@H](OC(C)=O)C2=C(C)[C@@H](OC(=O)[C@H](O)[C@@H](NC(=O)c3ccccc3)c3ccccc3)C[C@@H]1C2(C)C`: the values for the Ratio in test [1], in test [2] and in test [3] were 4.9, 4.6 and 4.5, respectively.
For `CC(=O)O[C@H]1[C@@H]2[C@@H]3CN(C(=O)C(F)(F)F)[C@@H]3CC[C@@]2(C)[C@@H](OC(C)=O)[C@H](OC(C)=O)C2=C(C)[C@@H](OC(=O)[C@H](O)[C@@H](NC(=O)c3ccccc3)c3ccccc3)C[C@@H]1C2(C)C`, the Ratio stood at 3.8 in test [1], 4.7 in test [2] and 3.2 in test [3].
For the molecule `CC(=O)O[C@H]1[C@@H]2[C@@H]3CN(C(C)=O)[C@@H]3CC[C@@]2(C)[C@@H](OC(C)=O)[C@H](OC(C)=O)C2=C(C)[C@@H](OC(=O)[C@H](O)[C@@H](NC(=O)c3ccccc3)c3ccccc3)C[C@@H]1C2(C)C`, the figures for the Ratio in test [1], in test [2] and in test [3] were 3.6, 5.8 and 2.9, respectively.
The like results for `COc1ccc(OC2O[C@@H](C(=O)O[C@H]3C[C@H]4[C@@H](OC(C)=O)[C@@H]5[C@@H]6CN[C@@H]6CC[C@@]5(C)[C@@H](OC(C)=O)[C@H](OC(C)=O)C(=C3C)C4(C)C)[C@H](c3ccccc3)N2C(=O)c2ccccc2)cc1` (stereo partly drawn) were, in that order, 8.6, 9.3 and 6.8.
For `COc1ccc(OC2O[C@@H](C(=O)O[C@H]3C[C@H]4[C@@H](OC(C)=O)[C@@H]5[C@@H]6CN(C(C)=O)[C@@H]6CC[C@@]5(C)[C@@H](OC(C)=O)[C@H](OC(C)=O)C(=C3C)C4(C)C)[C@H](c3ccccc3)N2C(=O)c2ccccc2)cc1` (stereo partly drawn), in that order: 9.3, 10.2 and 6.9.
For `CC(=O)O[C@H]1C(=O)[C@@]2(C)[C@H]([C@H](OC(=O)c3ccccc3)[C@]3(O)C[C@H](OC(=O)[C@H](O)[C@@H](NC(=O)c4ccccc4)c4ccccc4)C(C)=C1C3(C)C)[C@]1(OC(C)=O)CO[C@@H]1C[C@@H]2O` [PACLITAXEL], the Ratio in test [1], in test [2] and in test [3] was 1 each time.

Values taken from ChEMBL document CHEMBL1136825, “Synthesis and biological evaluation of 4-deacetoxy-1,7-dideoxy azetidine paclitaxel analogues” (2003).
